Measurements taken from patent US10801076B2, “Influenza A virus variants” (Vertex Pharmaceuticals Incorporated, priority 2014, dated 2020).

Tested on: A/Wisconsin/67/2005-p1
Test: microbe, parasite or virus in culture
Format: cell-based, influenza A virus (H3N2)
Settings: Influenza A virus, MDCK, 72 h, read-out: Sensitivity to Compound 1 (EC50)

SMILES: O=C(O)[C@H]1C2CCC(CC2)[C@@H]1Nc1nc(-c2c[nH]c3ncc(F)cc23)ncc1F [Compound 1]
- EC50: 2 nM
